Assay results published in patent publication US20080118529A1 (priority 2005, published 2008).

Tests used:
U937 monocytes = type: cell-based, human; conditions: 1 h
tPA = type: biochemical, human
factor XII [1] = molecular target: T1, factor XII (Homo sapiens, UniProt P00748); type: biochemical
factor XII [2] = molecular target: T1, factor XII; type: biochemical; remark: listed apart in the source
OVA = system: OVA; parameters: species or system chicken; conditions: in vivo
DOVA = system: DOVA; parameters: species or system chicken; conditions: in vivo
nOVA = system: nOVA; parameters: species or system Balb/c mice; conditions: mouse, in vivo
nOVA, sequence (P01012 whole entry): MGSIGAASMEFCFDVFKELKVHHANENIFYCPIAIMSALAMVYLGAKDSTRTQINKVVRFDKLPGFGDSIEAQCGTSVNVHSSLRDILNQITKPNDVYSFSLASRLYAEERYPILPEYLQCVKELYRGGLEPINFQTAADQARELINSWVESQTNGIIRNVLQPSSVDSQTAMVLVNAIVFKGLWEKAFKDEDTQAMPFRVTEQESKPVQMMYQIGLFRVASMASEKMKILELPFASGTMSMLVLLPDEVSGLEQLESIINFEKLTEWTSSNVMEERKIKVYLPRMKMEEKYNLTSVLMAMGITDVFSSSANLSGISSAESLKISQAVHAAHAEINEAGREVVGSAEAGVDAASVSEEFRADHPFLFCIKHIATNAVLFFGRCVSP

T1 sequence (P00748 20-615): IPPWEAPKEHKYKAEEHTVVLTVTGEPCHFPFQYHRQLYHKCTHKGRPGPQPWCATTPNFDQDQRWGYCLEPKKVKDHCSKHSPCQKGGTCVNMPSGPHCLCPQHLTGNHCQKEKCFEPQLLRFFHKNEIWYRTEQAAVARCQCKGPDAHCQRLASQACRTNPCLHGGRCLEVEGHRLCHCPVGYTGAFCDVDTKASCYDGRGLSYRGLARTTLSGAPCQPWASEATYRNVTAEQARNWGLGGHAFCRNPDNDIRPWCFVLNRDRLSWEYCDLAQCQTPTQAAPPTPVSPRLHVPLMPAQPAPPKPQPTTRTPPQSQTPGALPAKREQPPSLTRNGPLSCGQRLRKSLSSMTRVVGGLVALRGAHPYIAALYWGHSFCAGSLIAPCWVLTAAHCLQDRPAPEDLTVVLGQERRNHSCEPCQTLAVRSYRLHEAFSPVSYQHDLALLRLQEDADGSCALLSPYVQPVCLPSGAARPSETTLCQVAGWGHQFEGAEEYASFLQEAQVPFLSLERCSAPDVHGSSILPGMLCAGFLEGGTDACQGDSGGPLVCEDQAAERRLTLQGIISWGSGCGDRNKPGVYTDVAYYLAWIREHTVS

## Endostatin
U937 monocytes; 100 μg/ml amyloid endostatin, 260 μg/ml Hb-AGE, 1 μg/ml LPS, normalized to 18S
  TNFα RNA expression compared to LPS: approximately 30%

## CCCCCCCCCCCCCCCCCC[N+](C)(C)CCCCCCCCCCCCCCCCCC.[Br-] [DDA, dimethyl dioctadecyl ammonium bromide]
tPA
  activation of tPA by adjuvants: activators of tPA

## control Hb: control haemoglobin, not glycated
U937 monocytes; 260 μg/ml
  TNFα RNA expression relative to endostatin and Hb-AGE: approximately threefold lower
  TNFα RNA upregulation relative to values after amyloid endostatin or glycated Hb stimulation: ≤ 30%

## Cc1ccc2c(c1)sc(-c1ccc(N(C)C)cc1)[n+]2C.[Cl-] [ThT, Thioflavin T]
Factor XII [1]
  inhibition of factor XII activation by DXS500k and 80× diluted plasma: fully inhibited
  inhibition of the stimulatory activity of FP13 K157G on factor XII autoactivation: effectively inhibits

## dextran-sulphate [DXS500k]
tPA
  activation of tPA by adjuvants: activators of tPA
Factor XII [1]
  factor XII activation by DXS500k: only a stimulatory factor for factor XII activation when 80× diluted plasma is present
Factor XII [2]
  activation of factor XII in the presence of prekallikrein and high molecular weight kininogen: only then effectively activated

## Etanercept [Native Etanercept]
tPA
  tPA/plasminogen activating potential of protein/antigen preparation: some tPA activation

## ovalbumin [nOVA]
OVA
  anti-OVA titer: can not elicit
DOVA
  anti-DOVA titer: can not elicit
nOVA
  anti-nOVA titer after one week: no titer was detected
  titer of anti-nOVA antibodies: 610

## glucagon [native glucagon]
tPA
  tPA/plasminogen activating potential of protein/antigen preparation: some tPA activating potential
